What was measured:
[1] = test system: HCV replicon cells Huh 9B; experiment: HCV replicon assay (luciferase readout); format: cell-based; conditions: Hepatitis C virus, 72 h, concentration reducing replicon level (luciferase activity) by 50% vs untreated cell control; 72 h incubation
In short: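 Compounds, made up at twice final strength (final DMSO 1%), were added to subgenomic replicon cells one day after plating. Incubation then ran 72 h at 37 °C, 5% CO2, without G418. Replication was quantified as firefly luciferase luminescence in lysed cells, with cytotoxicity assessed on a duplicate clear plate.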

[2] = test system: HCV replicon cells Huh 9B; format: cell-based; conditions: concentration reducing total cell area by 50% relative to DMSO controls; methylene blue, absorbance 620 nm; 72 h incubation

SMILES | IC50 [1] [nM] | TD50 [2]
O=C(Nc1ccc(CN2CCS(=O)(=O)CC2)cc1)c1ccc(-c2cccc(NC(=O)C3CCC3)c2)cc1 [Example 169, 3′-(Cyclobutanecarbonyl-amino)-biphenyl-4-carboxylic acid [4-(1,1-dioxo-1lambda*6*-thiomorpholin-4-ylmethyl)-phenyl]-amide] | < 1000 | * (* < 50 μM)
Cc1ccc(NC(=O)C2CCOCC2)cc1-c1ccc(C(=O)Nc2ccc(CN3CCS(=O)(=O)CC3)cc2)cc1 [Example 170, Tetrahydro-pyran-4-carboxylic acid {4′-[4-(1,1-dioxo-1lambda*6*-thiomorpholin-4-ylmethyl)-phenylcarbamoyl]-6-methyl-biphenyl-3-yl}-amide] | < 1000 | * (* < 50 μM)
Cc1ccc(NC(=O)CC2CCOCC2)cc1-c1ccc(C(=O)Nc2ccc(CN3CCS(=O)(=O)CC3)cc2)cc1 [Example 171, 2′-Methyl-5′-(2-tetrahydro-pyran-4-yl-acetylamino)-biphenyl-4-carboxylic acid [4-(1,1-dioxo-1lambda*6*-thiomorpholin-4-ylmethyl)-phenyl]-amide] | < 1000 | * (* < 50 μM)
Cc1ccc(-c2ccc(C(=O)Nc3ccc(CN4CCS(=O)(=O)CC4)cc3)cc2C)cc1NC(=O)C1CC1 [Example 172, 3′-(Cyclopropanecarbonyl-amino)-2,4′-dimethyl-biphenyl-4-carboxylic acid [4-(1,1-dioxo-1lambda*6*-thiomorpholin-4-ylmethyl)-phenyl]-amide] | 1000 to 5000 | * (* < 50 μM)
Cc1ccc(NC(=O)C2(C(F)(F)F)CC2)cc1-c1ccc(C(=O)Nc2ccc(CN3CCS(=O)(=O)CC3)cc2)cc1 [Example 173, 2′-Methyl-5′-[(1-trifluoromethyl-cyclopropanecarbonyl)-amino]-biphenyl-4-carboxylic acid [4-(1,1-dioxo-1lambda*6*-thiomorpholin-4-ylmethyl)-phenyl]-amide] | 1000 to 5000 | * (* < 50 μM)
Cc1ccc(NC(=O)C2(C#N)CC2)cc1-c1ccc(C(=O)Nc2ccc(CN3CCS(=O)(=O)CC3)cc2)cc1 [Example 174, 5′-[(1-Cyano-cyclopropanecarbonyl)-amino]-2′-methyl-biphenyl-4-carboxylic acid [4-(1,1-dioxo-1lambda*6*-thiomorpholin-4-ylmethyl)-phenyl]-amide] | 1000 to 5000 | * (* < 50 μM)
Cc1ccc(NC(=O)C2(C)CC2)cc1-c1ccc(C(=O)Nc2ccc(CN3CCS(=O)(=O)CC3)cc2)cc1 [Example 175, 2′-Methyl-5′-[(1-methyl-cyclopropanecarbonyl)-amino]-biphenyl-4-carboxylic acid [4-(1,1-dioxo-1lambda*6*-thiomorpholin-4-ylmethyl)-phenyl]-amide] | < 1000 | * (* < 50 μM)
Cc1ccc(NC(=O)c2cscn2)cc1-c1ccc(C(=O)Nc2ccc(CN3CCS(=O)(=O)CC3)cc2)cc1 [Example 177, Thiazole-4-carboxylic acid {4′-[4-(1,1-dioxo-1lambda*6*-thiomorpholin-4-ylmethyl)-phenylcarbamoyl]-6-methyl-biphenyl-3-yl}-amide] | 1000 to 5000 | * (* < 50 μM)
Cc1ccc(NC(=O)CC2CC2)cc1-c1ccc(C(=O)Nc2ccc(CN3CCS(=O)(=O)CC3)cc2)cc1 [Example 178, 5′-(2-Cyclopropyl-acetylamino)-2′-methyl-biphenyl-4-carboxylic acid [4-(1,1-dioxo-1lambda*6*-thiomorpholin-4-ylmethyl)-phenyl]-amide] | < 1000 | * (* < 50 μM)
Cc1ccc(NC(=O)c2cncs2)cc1-c1ccc(C(=O)Nc2ccc(CN3CCS(=O)(=O)CC3)cc2)cc1 [Example 179, Thiazole-5-carboxylic acid {4′-[4-(1,1-dioxo-1lambda*6*-thiomorpholin-4-ylmethyl)-phenylcarbamoyl]-6-methyl-biphenyl-3-yl}-amide] | < 1000 | * (* < 50 μM)
